Patent US7842710B2, “Carboxamides” (Bayer Cropscience AG, priority 2004, dated 2010)

Key:
[1] = system: Puccinia recondita; assay: Puccinia test (wheat)/protective; type: in vivo; details: 240 h, protective, application rate 500 g/ha, evaluation ten days after inoculation, 0% = control, 100% = no infestation, read-out: Degree of effectiveness in %
Experimental: [table] To produce an appropriate active ingredient preparation, one part by weight of the active substance is mixed with the specified quantities of solvent and emulsifying agent, and the concentrate is diluted with water to the desired concentration. Young plants are sprayed with the active ingredient preparation at the specified application rate to test the effectiveness of protection. After the sprayed coating has dried, the plants are sprayed with a conidia suspension of Puccinia recondita. The plants are kept in an incubator at 20° C. and 100% relatively humidity for 48 hours. Then the plants are placed in a greenhouse at a temperature of about 20° C. and a relatively humidity of 80%, in order to promote the development of rust spots. The evaluation is performed ten days after the inoculation. A degree of effectiveness rating of 0% corresponds to the control, with 100% indicating no infestation observed.

[2] = system: Botrytis cinerea; assay: Botrytis test (bean)/protective; type: in vivo; details: protective, application rate 500 g/ha, evaluation two days after inoculation, 0% = control, 100% = no infestation
Experimental: [table] To produce an appropriate active ingredient preparation, one part by weight of the active substance is mixed with the specified quantities of solvent and emulsifying agent, and the concentrate is diluted with water to the desired concentration. Young plants are sprayed with the active ingredient preparation at the specified application rate to test the effectiveness of protection. After the sprayed coating has dried, two small pieces of agar with cultured Botrytis cinerea are placed on each leaf. The inoculated plants are placed in a darkened chamber at about 20° C. and 100% relatively humidity. Two days after the inoculation, the size of the infestation spots on the leaves is evaluated. A degree of effectiveness rating of 0% corresponds to the control, with 100% indicating no infestation observed.

[3] = logP determination by HPLC on a reverse phase column (C18), EEC Directive 79/831 Annex V.A8; type: physicochemical; details: HPLC C18, 43° C.; for logP (pH 2.3): Table 1; for chromatographic logP: reverse phase HPLC column (C18), pH 2.3
Experimental: The specified logP values are determined by HPLC on a reverse phase column (C18) in accordance with EEC Directive 79/831 Annex V.A8. Temperature: 43° C. Eluents for the measurement in the acid range (pH 2.3): 0.1% aqueous phosphoric acid, acetonitrile; linearer gradient of 10% acetonitrile to 90% acetonitrile. Calibration is performed with unbranched alkyl-2-ones (with 3 to 16 carbon atoms) with known logP values (determination of the logP values based on retention times by linear interpolation between two sequential alkyl ketones).

Row | logP (pH 2.3) [3] | SMILES | further results
1 | 3.67 | CC(C)OC(C)c1ccccc1NC(=O)c1cnn(C)c1C(F)F (stereo not shown) [compound 136] | –
2 | 3.79 | CC(C)SC(C)c1ccccc1NC(=O)c1ccccc1Br (racemic) [compound 26] | –
3 | 3.38 | CCC(C)SC(C)c1ccccc1NC(=O)c1c(C)nn(C)c1F (mixture of isomers) [compound 46] | –
4 | 3.71 | Cc1occc1C(=O)Nc1ccccc1C(C)SC(C)C (stereo not shown) [compound 24] | –
5 | 2.89 | CC(C)OC(C)c1ccccc1NC(=O)c1cn(C)nc1C(F)F (stereo not shown) [compound 135] | –
6 | 3.65 | CC1=C(C(=O)Nc2ccccc2C(C)SC(C)C)SCCO1 (stereo not shown) [compound 98] | –
7 | 4.17 | CCC(C)SC(C)c1ccccc1NC(=O)c1ccoc1C (stereo not shown) [compound 74] | –
8 | 2.53 | Cc1nn(C)cc1C(=O)Nc1ccccc1C(C)SC(C)C (stereo not shown) [compound 17] | –
9 | 2.90 | CCC(C)SC(C)c1ccccc1NC(=O)c1cn(C)nc1C (stereo not shown) [compound 84] | –
10 | 2.72 | CC(C)OC(C)c1ccccc1NC(=O)c1cccnc1Cl (stereo not shown) [compound 132] | –
11 | 2.16 | Cc1nc(C(F)F)c(C(=O)Nc2ccccc2C(C)S(=O)(=O)C(C)C)s1 (stereo not shown) [compound 13] | –
12 | 3.27 | CCCC(C)SC(C)c1ccccc1NC(=O)c1cn(C)nc1C (stereo not shown) [compound 82] | –
13 | 1.68 | CC(C)S(=O)(=O)C(C)c1ccccc1NC(=O)c1cccnc1Cl (stereo not shown) [compound 5] | –
14 | 2.38 | CC(C)C(=O)OCc1ccccc1NC(=O)c1cccnc1Cl [compound 57] | –
15 | 2.21 | Cc1occc1C(=O)Nc1ccccc1C(C)S(=O)(=O)C(C)C (stereo not shown) [compound 8] | –
16 | 5.60 | CC(C)OC(C)c1ccccc1NC(=O)c1cn(C)cc1C(F)(F)F (stereo not shown) [compound 138] | –
17 | 1.66 | Cc1nn(C)c(F)c1C(=O)Nc1ccccc1C(C)S(=O)(=O)C(C)C (stereo not shown) [compound 11] | –
18 | 4.33 | CCC(C)SC(C)c1ccccc1NC(=O)c1ccccc1I (mixture of isomers) [compound 49] | –
19 | 1.06 | CC(C)NC(C)c1ccccc1NC(=O)c1cn(C)nc1C(F)(F)F (racemic) [compound 41] | –
20 | 3.27 | CC(C)SC(C)c1ccccc1NC(=O)c1cn(C)nc1C(F)(F)F (stereo not shown) [compound 18] | –
21 | 4.71 | CCCC(C)SC(C)c1ccccc1NC(=O)c1ccccc1C(F)(F)F (stereo not shown) [compound 70] | –
22 | 3.58 | Cc1nc(C(F)F)c(C(=O)Nc2ccccc2C(C)OC(C)C)s1 (stereo not shown) [compound 131] | –
23 | 3.16 | Cc1sccc1C(=O)Nc1ccccc1C(C)SC1CCCC1 (stereo not shown) [compound 90] | –
24 | 4.75 | CCCC(C)SC(C)c1ccccc1NC(=O)c1ccccc1I (mixture of isomers) [compound 47] | –
25 | 4.31 | Cc1occc1C(=O)Nc1ccccc1C(C)SC1CCCC1 (stereo not shown) [compound 91] | –
26 | 2.99 | COC(C)c1ccccc1NC(=O)c1ccccc1C(F)(F)F (racemic) [compound 34] | –
27 | 4.21 | CCC(C)SC(C)c1ccccc1NC(=O)c1ccccc1Br (stereo not shown) [compound 83] | –

The remaining lines, values behind:

Row | SMILES | logP (pH 2.3) [3] | further results
28 | CC(C)SC(C)c1ccccc1NC(=O)c1cn(C)cc1C(F)(F)F (stereo not shown) [drawing 510] | – | pest or weed control at 500 g/ha [1]: 100%
29 | CCCC(C)SC(C)c1ccccc1NC(=O)c1sc(C)nc1C(F)F (stereo not shown) [drawing 506] | – | pest or weed control at 500 g/ha [1]: 100%
30 | CCC(C)SC(C)c1ccccc1NC(=O)C1=C(C)OCCS1 (stereo not shown) [drawing 508] | – | pest or weed control at 500 g/ha [1]: 100%
31 | CCC(C)SC(C)c1ccccc1NC(=O)c1cn(C)nc1C(F)(F)F (stereo not shown) [drawing 491] | – | Degree of effectiveness in % [2]: 100%
32 | CCCC(C)SC(C)c1ccccc1NC(=O)c1sc(C)nc1C(F)(F)F (stereo not shown) [drawing 490] | – | Degree of effectiveness in % [2]: 99%
33 | Cc1nn(C)c(F)c1C(=O)Nc1ccccc1C(C)OC(C)C (stereo not shown) | – | pest or weed control at 500 g/ha [1]: 100%
34 | CC(C)SC(C)c1ccccc1NC(=O)c1cn(C)cc1C(F)(F)F (stereo not shown) [drawing 493] | – | Degree of effectiveness in % [2]: 97%
35 | Cc1nc(C(F)F)c(C(=O)Nc2ccccc2CSC(C)C)s1 [drawing 495] | – | pest or weed control at 500 g/ha [1]: 93%
36 | Cc1nn(C)c(F)c1C(=O)Nc1ccccc1C(C)SC(C)C (stereo not shown) [drawing 502] | – | pest or weed control at 500 g/ha [1]: 100%
37 | CC(C)SC(C)c1ccccc1NC(=O)c1c(C(F)(F)F)nn(C)c1F (stereo not shown) | – | pest or weed control at 500 g/ha [1]: 96%
38 | CCC(C)SC(C)c1ccccc1NC(=O)c1sccc1C (stereo not shown) | – | pest or weed control at 500 g/ha [1]: 100%
39 | Cc1nn(C)c(Cl)c1C(=O)Nc1ccccc1C(C)SC1CCCC1 (stereo not shown) | – | pest or weed control at 500 g/ha [1]: 100%
40 | Cc1nn(C)c(Cl)c1C(=O)Nc1ccccc1C(C)SC(C)C (stereo not shown) | – | pest or weed control at 500 g/ha [1]: 100%
41 | CC(C)OC(C)c1ccccc1NC(=O)c1cn(C)nc1C(F)(F)F (stereo not shown) [drawing 500] | – | pest or weed control at 500 g/ha [1]: 100%
42 | CCCC(C)SC(C)c1ccccc1NC(=O)c1sc(C)nc1C(F)(F)F (stereo not shown) [drawing 496] | – | pest or weed control at 500 g/ha [1]: 100%
43 | Cc1nn(C)c(F)c1C(=O)Nc1ccccc1C(C)SC1CCCC1 (stereo not shown) [compound 100] | 4.03 | –
44 | O=C(Nc1ccccc1COC(=O)C(Cl)Cl)c1ccccc1C(F)(F)F [compound 50] | 3.15 | –
45 | CC(SC1CCCC1)c1ccccc1NC(=O)c1ccccc1Cl (stereo not shown) [compound 92] | 4.29 | –
46 | CC(C)NC(C)c1ccccc1[N+](=O)[O-] (stereo not shown) [VII-5, N-[1-(2-nitrophenyl)ethyl]propane-2-amine] | – | chromatographic logP [3]: 0.55
47 | CC(C)SCc1ccccc1[N+](=O)[O-] [VII-2, 1-[1-(isopropylthio)methyl]-2-nitrobenzene] | – | chromatographic logP [3]: 3.28
48 | CC(C)OC(C)c1ccccc1NC(=O)c1cn(C)nc1C(F)F (stereo not shown) [drawing 499] | – | pest or weed control at 500 g/ha [1]: 100%
49 | Cn1cc(C(=O)Nc2ccccc2CCO)c(C(F)(F)F)n1 [compound 62] | 1.62 | –
50 | CCC(C)SC(C)c1ccccc1NC(=O)c1cn(C)nc1C(F)F (stereo not shown) [drawing 507] | – | pest or weed control at 500 g/ha [1]: 100%

Row | SMILES | logP (pH 2.3) [3] | further results
51 | Cc1nn(C)c(F)c1C(=O)Nc1ccccc1COC(=O)C(Cl)Cl [compound 52] | 2.36 | –
52 | COC(C)c1cc(Cl)ccc1NC(=O)c1ccccc1C(F)(F)F (racemic) [compound 33] | 3.56 | –
53 | CC(C)SC(C)c1ccccc1[N+](=O)[O-] (stereo not shown) [VII-1, 1-[1-(isopropylthio)ethyl]-2-nitrobenzene] | – | chromatographic logP [3]: 3.89
54 | CCC(C)SC(C)c1ccccc1NC(=O)c1sc(C)nc1C(F)F (stereo not shown) [drawing 505] | – | pest or weed control at 500 g/ha [1]: 100%
55 | CCC(C)SC(C)c1ccccc1NC(=O)c1c(C(F)(F)F)nn(C)c1F (racemic) [compound 121] | 3.99 | –
56 | CC(C)S(=O)(=O)C(C)c1ccccc1N (stereo not shown) [III-2, 2-[1-(isopropylsulfonyl)ethyl]aniline] | – | chromatographic logP [3]: 1.28
57 | CC(C)OCc1ccccc1NC(=O)c1ccccc1C(F)(F)F [compound 54] | 2.51 | –
58 | CCCC(C)SC(C)c1ccccc1NC(=O)c1cn(C)nc1C(F)(F)F (mixture of isomers) [compound 42] | 4.02 | –
59 | Cn1cc(C(=O)Nc2ccccc2CO)c(C(F)(F)F)n1 [IV-1, N-[2-(hydroxymethyl)phenyl]-1-methyl-3-(trifluoromethyl)-1H-pyrazole-4-carboxamide] | – | chromatographic logP [3]: 1.55
60 | CCC(C)SC(C)c1ccccc1NC(=O)c1cn(C)nc1C (stereo not shown) [drawing 504] | – | pest or weed control at 500 g/ha [1]: 100%
61 | CC1=C(C(=O)Nc2ccccc2C(C)SC(C)C)SCCO1 (stereo not shown) [drawing 509] | – | pest or weed control at 500 g/ha [1]: 100%
62 | CCC(C)SC(C)c1ccccc1NC(=O)c1c(C)nn(C)c1F (stereo not shown) [drawing 497] | – | pest or weed control at 500 g/ha [1]: 100%
63 | CC(Cl)c1ccccc1[N+](=O)[O-] (stereo not shown) [VIII-1, 1-(1-chloroethyl)-2-nitrobenzene] | – | chromatographic logP [3]: 2.87
64 | Cn1cc(C(=O)Nc2ccccc2COC(=O)C(Cl)Cl)c(C(F)(F)F)n1 [compound 56] | 2.69 | –
65 | Cc1nn(C)c(F)c1C(=O)Nc1ccccc1CCO[Si](C)(C)C(C)(C)C [compound 69] | 4.49 | –
66 | CCCC(C)SC(C)c1ccccc1NC(=O)c1c(C)nn(C)c1Cl (stereo not shown) | – | pest or weed control at 500 g/ha [1]: 100%
67 | CC(C)SC(C)c1ccccc1NC(=O)c1cn(C)nc1C(F)(F)F (stereo not shown) [drawing 494] | – | pest or weed control at 500 g/ha [1]: 100%
68 | COCc1ccccc1NC(=O)C1=C(C)OCC1 [compound 1] | 2.18 | –
69 | CC(C)SCc1ccccc1NC(=O)C1=C(C(F)(F)F)OCCS1 [compound 37] | 3.48 | –
70 | CCC(C)SC(C)c1ccccc1NC(=O)c1cn(C)nc1C(F)(F)F (stereo not shown) [drawing 498] | – | pest or weed control at 500 g/ha [1]: 100%
71 | CC(C)SCc1ccccc1NC(=O)c1ccccc1I [compound 39] | 3.68 | –
72 | CC(C)C(=O)OCc1ccccc1NC(=O)c1ccccc1C(F)(F)F [compound 53] | 3.24 | –
73 | CC(=O)OC(C)(C)CCc1ccccc1NC(=O)c1ccccc1C(F)(F)F [compound 61] | 3.30 | –
